Reference: PMC8776995 (Frontiers in Chemistry, 2022)
Where “and” joins values, the source holds several entries; their conditions need not be identical. Equal values may be shown once.

How the values were obtained:
wild-type EGFR = wild-type EGFR (Homo sapiens, UniProt P00533); experiment: EGFR kinase assay (ELISA); conditions: for IC50: IC50 (μM) EGFR, ELISA, 3 μmol/L ATP; for A450: raw ELISA absorbance
Method: The kinase enzyme of EGFR was purchased from Carna Bioscience (Kobe, Japan). A total of 10 ng/ml anti phosphotyrosine (PY713) antibody (abcam, Cambridge Science Park, United Kingdom) was precoated in 96-well ELISA plates. […] Then, a total of 3 μmol/L ATP was added and the reaction was continued for 2 h. […] After incubation, the wells were washed with PBS and then incubated with horseradish peroxidase (HRP)-conjugated streptavidin. The wells were visualized using 3,3′,5,5′-tetramethylbenzidine (TMB), and chromogenic reaction was ended with 2 mol/L H2SO4, the absorbance was read with a multimode plate reader (PerkinElmer, United States) at 450 nm.

H460 cells = experiment: CCK-8 antiproliferation assay, H460; conditions: for Inhibitory efficacy: H460 cells; for IC50: NCI-H460, 48 h, read-out: IC50 (μM) H460, CCK-8, 48 h, average ± SD of three independent experiments
A549 cells = experiment: CCK-8 antiproliferation assay, A549; conditions: for Inhibitory efficacy: A549 cells; for IC50: A549, 48 h, read-out: IC50 (μM) A549, CCK-8, 48 h, average ± SD of three independent experiments
Method: (§1) The compounds were dissolved in DMSO to make a 20 μM stock solution and diluted to the concentration of working solutions with complete growth medium before administration.
(§2) Cells were seeded in 96-well plates: 3,000–5,000 cells/well in 100 ul. One day after seeding, the test compounds at concentration between 1.0 and 16.0 μ M or 0.1% DMSO (as control) were added to cells in triplicate. 48 h later, CCK-8 was added and incubated the plate for 1–4 h in the incubator. The absorbance at 450 nm were measured using a microplate reader (Bio-Tek).

PC-9 cells = experiment: CCK-8 antiproliferation assay, PC-9; conditions: for IC50: PC-9, 48 h, read-out: IC50 (μM) PC-9; for Inhibitory efficacy: single repeats (Repeat 1-3), given as fraction
H1975 cells = experiment: CCK-8 antiproliferation assay, H1975; conditions: for Inhibitory efficacy: H1975 cells; for IC50: NCI-H1975, 48 h, read-out: IC50 (μM) H1975, CCK-8, 48 h, average ± SD of three independent experiments
Method: as §1, §2

[1] = concentration 0.03 nM, one value per replicate column, 3e-05 µM
[2] = concentration 0.3 nM, one value per replicate column, 0.0003 µM
[3] = concentration 3 nM, one value per replicate column
[4] = concentration 3 nM, one value per replicate column, 0.003 µM
[5] = concentration 30 nM, one value per replicate column
[6] = concentration 30 nM, one value per replicate column, 0.03 µM
[7] = concentration 300 nM, one value per replicate column
[8] = concentration 300 nM, one value per replicate column, 0.3 µM
[9] = concentration 3000 nM, one value per replicate column
[10] = concentration 3000 nM, one value per replicate column, 3 µM
[11] = concentration 30000 nM, one value per replicate column
[12] = concentration 30000 nM, one value per replicate column, 30 µM
[13] = 1uM, given as fraction, Repeat 1-3
[14] = 2uM, given as fraction, Repeat 1-3
[15] = 8uM, given as fraction, Repeat 1-3
[16] = Homo sapiens, NCI-H460, read-out: Inhibitory efficacy, H460 cells, 8uM, given as fraction, Repeat 1-3
[17] = 16uM, given as fraction, Repeat 1-3
[18] = Homo sapiens, A549, read-out: Inhibitory efficacy, A549 cells, 16uM, given as fraction, Repeat 1-3
[19] = 4uM, given as fraction, Repeat 1-3
[20] = Homo sapiens, NCI-H1975, read-out: Inhibitory efficacy, H1975 cells, 8uM, given as fraction, Repeat 1-3
[21] = Homo sapiens, NCI-H1975, read-out: Inhibitory efficacy, H1975 cells, 16uM, given as fraction, Repeat 1-3

Chain of wild-type EGFR (P00533 25-1210): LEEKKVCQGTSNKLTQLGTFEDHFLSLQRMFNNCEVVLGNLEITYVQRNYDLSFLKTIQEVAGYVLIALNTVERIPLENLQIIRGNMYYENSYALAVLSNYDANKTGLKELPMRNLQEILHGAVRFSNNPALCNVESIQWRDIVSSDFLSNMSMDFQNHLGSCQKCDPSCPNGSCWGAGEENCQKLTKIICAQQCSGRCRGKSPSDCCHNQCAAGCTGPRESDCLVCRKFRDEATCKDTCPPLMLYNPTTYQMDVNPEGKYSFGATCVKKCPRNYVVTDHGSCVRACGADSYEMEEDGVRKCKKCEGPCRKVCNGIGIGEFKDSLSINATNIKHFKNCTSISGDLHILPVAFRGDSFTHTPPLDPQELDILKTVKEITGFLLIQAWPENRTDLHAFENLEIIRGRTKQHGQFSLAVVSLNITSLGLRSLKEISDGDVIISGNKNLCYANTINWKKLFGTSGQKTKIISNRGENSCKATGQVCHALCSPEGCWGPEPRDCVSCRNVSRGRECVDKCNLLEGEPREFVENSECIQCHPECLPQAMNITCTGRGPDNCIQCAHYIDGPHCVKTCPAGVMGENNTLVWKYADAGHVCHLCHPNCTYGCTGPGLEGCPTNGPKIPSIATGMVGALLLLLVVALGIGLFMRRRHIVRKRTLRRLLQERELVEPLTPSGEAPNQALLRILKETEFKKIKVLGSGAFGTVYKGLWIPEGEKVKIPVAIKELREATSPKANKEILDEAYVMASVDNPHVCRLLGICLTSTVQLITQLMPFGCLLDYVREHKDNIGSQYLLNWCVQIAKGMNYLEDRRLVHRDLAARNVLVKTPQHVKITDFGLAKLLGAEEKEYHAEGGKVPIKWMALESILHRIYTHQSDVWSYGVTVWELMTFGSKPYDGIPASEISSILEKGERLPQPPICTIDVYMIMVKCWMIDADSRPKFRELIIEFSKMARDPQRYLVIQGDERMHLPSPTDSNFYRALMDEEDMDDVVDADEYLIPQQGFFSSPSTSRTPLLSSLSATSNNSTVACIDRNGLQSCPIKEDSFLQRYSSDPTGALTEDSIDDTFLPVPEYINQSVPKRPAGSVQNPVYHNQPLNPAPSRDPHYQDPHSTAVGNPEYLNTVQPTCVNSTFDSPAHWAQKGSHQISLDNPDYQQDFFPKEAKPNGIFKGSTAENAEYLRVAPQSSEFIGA

## COCCOc1cc2ncnc(Nc3cccc(-c4cn(Cc5ccccc5Br)nn4)c3)c2cc1OCCOC [e3, [6,7-Bis-(2-methoxy-ethoxy)-quinazolin-4-yl]-{3-[1-(2-bromo-benzyl)-1H-[1,2,3]triazol-4-yl]-phenyl}-amine]
other
  melting point: 94 to 97 °C
wild-type EGFR
  IC50: 68 µM
wild-type EGFR; concentration 0.0001 nM (reference for normalisation), one value per replicate column
  inhibition at 100 fM: 0%
wild-type EGFR; concentration 0.03 nM, one value per replicate column
  inhibition at 30 pM: 11.8%
wild-type EGFR; [1]
  Inhibition: 14.7465
wild-type EGFR; concentration 0.3 nM, one value per replicate column
  inhibition at 0.0003 µM: 17.6%
wild-type EGFR; [2]
  Inhibition: 17.0507
wild-type EGFR; [3]
  inhibition at 0.003 µM: 19.3%
wild-type EGFR; [4]
  Inhibition: 17.0507
wild-type EGFR; [5]
  inhibition at 0.03 µM: 37.4%
wild-type EGFR; [6]
  Inhibition: 28.1106
wild-type EGFR; [7]
  inhibition at 0.3 µM: 42.2%
wild-type EGFR; [8]
  Inhibition: 35.4839
wild-type EGFR; [9]
  inhibition at 3 µM: 42.8%
wild-type EGFR; [10]
  Inhibition: 36.8664
wild-type EGFR; [11]
  inhibition at 30 µM: 44.9%
wild-type EGFR; [12]
  Inhibition: 39.1705
wild-type EGFR; concentration 0.0001 nM
  A450: 0.398 and 0.464
wild-type EGFR; concentration 0.03 nM
  A450: 0.376 and 0.432
wild-type EGFR; concentration 0.3 nM
  A450: 0.365 and 0.427
wild-type EGFR; concentration 3 nM
  A450: 0.362 and 0.427
wild-type EGFR; concentration 30 nM
  A450: 0.328 and 0.403
wild-type EGFR; concentration 300 nM
  A450: 0.319 and 0.387
wild-type EGFR; concentration 3000 nM
  A450: 0.318 and 0.384
wild-type EGFR; concentration 30000 nM
  A450: 0.314 and 0.379
H460 cells; [13]
  Inhibitory efficacy: 0.2775 and 0.3081
H460 cells; [14]
  Inhibitory efficacy: 0.3143 and 0.3387
H460 cells; [15]
  Inhibitory efficacy: 0.3004 and 0.3491
H460 cells; Homo sapiens
  IC50: > 100 µM
H460 cells; Homo sapiens, NCI-H460, read-out: Inhibitory efficacy, H460 cells, 1uM, given as fraction, Repeat 1-3
  inhibition at 1 µM: 30.3%
H460 cells; Homo sapiens, NCI-H460, read-out: Inhibitory efficacy, H460 cells, 2uM, given as fraction, Repeat 1-3
  inhibition at 2 µM: 35%
H460 cells; [16]
  inhibition at 8 µM: 29%
A549 cells; [17]
  Inhibitory efficacy: 0.1506 and 0.2274
A549 cells; Homo sapiens
  IC50: > 100 µM
A549 cells; [18]
  inhibition at 16 µM: 15.2%
PC-9 cells; Homo sapiens
  IC50: > 100 µM
H1975 cells; [19]
  Inhibitory efficacy: 0.09844 and 0.1507
H1975 cells; [15]
  Inhibitory efficacy: 0.1976 and 0.2347
H1975 cells; [17]
  Inhibitory efficacy: 0.494 and 0.5082
H1975 cells; Homo sapiens
  IC50: 16.8 ± 1.02 µM
H1975 cells; Homo sapiens, NCI-H1975, read-out: Inhibitory efficacy, H1975 cells, 4uM, given as fraction, Repeat 1-3
  inhibition at 4 µM: 11.4%
H1975 cells; [20]
  inhibition at 8 µM: 25%
H1975 cells; [21]
  inhibition at 16 µM: 44.1%

## COCCOc1cc2ncnc(Nc3cccc(-c4cn(-c5ccccc5C(F)(F)F)nn4)c3)c2cc1OCCOC [e16, [6,7-Bis-(2-methoxy-ethoxy)-quinazolin-4-yl]-{3-[1-(2-trifluoromethyl-phenyl)-1H-[1,2,3]triazol-4-yl]-phenyl}-amine]
other
  melting point: 113 to 116 °C
wild-type EGFR
  IC50: 32.5 µM
wild-type EGFR; [1]
  Inhibition: 19.0252 and 4.409
wild-type EGFR; [2]
  Inhibition: 9.134
wild-type EGFR; [3]
  inhibition at 0.003 µM: 19.8%
wild-type EGFR; [4]
  Inhibition: 15.5906
wild-type EGFR; [5]
  inhibition at 0.03 µM: 23.4%
wild-type EGFR; [6]
  Inhibition: 15.748
wild-type EGFR; [7]
  inhibition at 0.3 µM: 27%
wild-type EGFR; [8]
  Inhibition: 20.1575
wild-type EGFR; [9]
  inhibition at 3 µM: 29.6%
wild-type EGFR; [10]
  Inhibition: 27.7165
wild-type EGFR; [11]
  inhibition at 30 µM: 60.1%
wild-type EGFR; [12]
  Inhibition: 60
wild-type EGFR; concentration 0.0001 nM
  A450: 0.901 and 0.865
wild-type EGFR; concentration 0.03 nM
  A450: 0.78 and 0.837
wild-type EGFR; concentration 0.3 nM
  A450: 0.775 and 0.807
wild-type EGFR; concentration 3 nM
  A450: 0.775 and 0.766
wild-type EGFR; concentration 30 nM
  A450: 0.752 and 0.765
wild-type EGFR; concentration 300 nM
  A450: 0.729 and 0.737
wild-type EGFR; concentration 3000 nM
  A450: 0.713 and 0.689
wild-type EGFR; concentration 30000 nM
  A450: 0.519 and 0.484
H460 cells; [19]
  Inhibitory efficacy: 0.2156 and 0.191
H460 cells; [15]
  Inhibitory efficacy: 0.4491 and 0.447
H460 cells; [17]
  Inhibitory efficacy: 0.6066 and 0.6034
H460 cells; Homo sapiens
  IC50: 10.9 ± 0.39 µM
H460 cells; Homo sapiens, NCI-H460, read-out: Inhibitory efficacy, H460 cells, 4uM, given as fraction, Repeat 1-3
  inhibition at 4 µM: 21.3%
H460 cells; [16]
  inhibition at 8 µM: 49.5%
H460 cells; Homo sapiens, NCI-H460, read-out: Inhibitory efficacy, H460 cells, 16uM, given as fraction, Repeat 1-3
  inhibition at 16 µM: 57.3%
A549 cells; [13]
  Inhibitory efficacy: 0.2305 and 0.3107
A549 cells; [14]
  Inhibitory efficacy: 0.2917 and 0.3288
A549 cells; [19]
  Inhibitory efficacy: 0.4966 and 0.48
A549 cells; [15]
  Inhibitory efficacy: 0.5015 and 0.5395
A549 cells; [17]
  Inhibitory efficacy: 0.6478 and 0.6577
A549 cells; Homo sapiens
  IC50: 5.75 ± 0.48 µM
A549 cells; Homo sapiens, A549, read-out: Inhibitory efficacy, A549 cells, 1uM, given as fraction, Repeat 1-3
  inhibition at 1 µM: 15.9%
A549 cells; Homo sapiens, A549, read-out: Inhibitory efficacy, A549 cells, 2uM, given as fraction, Repeat 1-3
  inhibition at 2 µM: 32.3%
A549 cells; Homo sapiens, A549, read-out: Inhibitory efficacy, A549 cells, 4uM, given as fraction, Repeat 1-3
  inhibition at 4 µM: 54.2%
A549 cells; Homo sapiens, A549, read-out: Inhibitory efficacy, A549 cells, 8uM, given as fraction, Repeat 1-3
  inhibition at 8 µM: 54.2%
A549 cells; [18]
  inhibition at 16 µM: 64%
PC-9 cells; Homo sapiens
  IC50: 7.71 ± 1.15 µM
PC-9 cells; Homo sapiens, PC-9, read-out: Inhibitory efficacy, PC-9, 4uM, single repeats (Repeat 1-3), given as fraction
  inhibition at 4 µM: 49.1%
PC-9 cells; Homo sapiens, PC-9, read-out: Inhibitory efficacy, PC-9, 8uM, single repeats (Repeat 1-3), given as fraction
  inhibition at 8 µM: 56.9%
PC-9 cells; Homo sapiens, PC-9, read-out: Inhibitory efficacy, PC-9, 16uM, single repeats (Repeat 1-3), given as fraction
  inhibition at 16 µM: 60.8%
PC-9 cells; PC-9, 4uM, 4 µM
  Inhibitory efficacy: 0.4427 and 0.4497
PC-9 cells; PC-9, 8uM, 8 µM
  Inhibitory efficacy: 0.7173 and 0.5415
PC-9 cells; PC-9, 16uM, 16 µM
  Inhibitory efficacy: 0.5494 and 0.5275
H1975 cells; [15]
  Inhibitory efficacy: 0.3646 and 0.348
H1975 cells; [17]
  Inhibitory efficacy: 0.506 and 0.5045
H1975 cells; Homo sapiens
  IC50: 15.3 ± 1.55 µM
H1975 cells; [20]
  inhibition at 8 µM: 44%
H1975 cells; [21]
  inhibition at 16 µM: 48%
